For 14 compounds, GI50 and TGI results are on record in PubChem BioAssay (NCI).

Values joined by “and” are separate entries in the source; they are usually repeats but may differ in a detail not shown here. Equal entries are not always repeated.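 Test compounds were applied to cells in 96-well plates for 48 hours at 5 doses. GI50 = concentration required for 50% inhibition of growth. TGI marks complete inhibition of growth.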 *1 amine or outer side, *2 acyl side, *3 side chain or, on linkers, in order; H or OH if unused. Where a SMILES comes first, the peptide text is derived from it. Bridges are numbered along the chain shown (N, C = ends). [ ]: non-standard residue; d: D form. ξ: configuration not given here. X4 = CCC(C)C(N[*:1])C(O)CC(=O)O[C@H](C(=O)C(C)C(=O)[*:2])C(C)C; NMeY = CN[C@@H](Cc1ccc(O)cc1)C(=O)O; ξNMeL = CNC(CC(C)C)C(=O)O; ξT = CC(O)C(N)C(=O)O

Among the test systems are ACHN renal; NCI/ADR-RES ovarian; HOP-92 NSCLC; SK-OV-3 ovarian; OVCAR-5 ovarian; RXF 393 renal; SK-MEL-28 melanoma; MOLT-4 leukemia; RPMI-8226 leukemia; MDA-N.
What all share (assay): NCI-60 cell line screen, 48 h

As to `CC1=CC[C@@H]2CC[C@]3(C)[C@H](CC[C@@H]4[C@@]5(C)CCCNC(C)(C)[C@@H]5CC[C@]43C)[C@H]2[C@@H]1C`, the GI50 with ACHN renal is 1.76 µM; in the test with NCI/ADR-RES ovarian it was 1.84 µM; with HOP-92 NSCLC, 1.39 µM; with SK-OV-3 ovarian it was 1.89 µM; in the test on OVCAR-5 ovarian, 1.67 µM; in the test on RXF 393 renal, 1.61 µM. Also, the GI50 in the test on SK-MEL-28 melanoma was 1.81 µM. Also, the TGI with ACHN renal worked out at 3.14 µM; in the test on NCI/ADR-RES ovarian, 3.52 µM; in the test with HOP-92 NSCLC it was 2.77 µM; with SK-OV-3 ovarian, 3.5 µM; with OVCAR-5 ovarian, 3.07 µM; with RXF 393 renal it was 3.1 µM. The same compound yielded a TGI in the test with SK-MEL-28 melanoma of 3.32 µM.
As to `CCOC(=O)c1cn(-c2ccc(Cl)cc2)c(=O)n2c1nc1ccccc12`, the TGI in the test on ACHN renal, with NCI/ADR-RES ovarian, with HOP-92 NSCLC, with OVCAR-5 ovarian, with RXF 393 renal and in the test with SK-MEL-28 melanoma was above 100 µM throughout. In addition, the TGI in the test with MOLT-4 leukemia and in the test with RPMI-8226 leukemia was above 100 µM throughout.
Regarding `C=C1C[C@]23C[C@@]1(O)CC[C@H]2[C@@]12C=C[C@H](O)[C@@](C)(C(=O)O1)[C@H]2[C@@H]3C(=O)O`, the TGI in the test on HOP-92 NSCLC, in the test on SK-OV-3 ovarian, in the test on OVCAR-5 ovarian, in the test with RXF 393 renal, with SK-MEL-28 melanoma and in the test on MOLT-4 leukemia was above 100 µM in each case. In addition, in the test on RPMI-8226 leukemia, the TGI is above 100 µM.
In the case of `O=C(O)c1ccc(Nc2nc3cc(C(F)(F)F)ccc3nc2C(=O)O)cc1`, the TGI in the test with ACHN renal, in the test with NCI/ADR-RES ovarian, with OVCAR-5 ovarian, in the test with RXF 393 renal, in the test on SK-MEL-28 melanoma and in the test with MDA-N was above 100 µM each time. Further, the TGI in the test with MOLT-4 leukemia was above 100 µM.
Turning to `O=C(NCCO)c1ccc(Cl)cc1`, the TGI with ACHN renal, in the test on NCI/ADR-RES ovarian, with HOP-92 NSCLC, in the test on OVCAR-5 ovarian, in the test with RXF 393 renal and with SK-MEL-28 melanoma was above 100 µM in each case. Also, the TGI in the test on MDA-N and with MOLT-4 leukemia was above 100 µM throughout.
As for `CC[N+](CC)=c1ccc2nc3c(cc(N)c4ccccc43)oc-2c1`, the GI50 in the test on ACHN renal was 0.412 µM; in the test on HOP-92 NSCLC, 0.19 µM; with SK-OV-3 ovarian it was 1.37 µM; with OVCAR-5 ovarian it was 0.24 µM; in the test with RXF 393 renal it was 0.173 µM; with MOLT-4 leukemia, 0.122 µM. Also, the GI50 in the test with RPMI-8226 leukemia is 0.0412 µM. Also, the TGI with ACHN renal worked out at 1.72 µM; in the test on HOP-92 NSCLC, 0.497 µM; in the test on SK-OV-3 ovarian, 2.7 µM; in the test with OVCAR-5 ovarian, 0.495 µM; in the test on RXF 393 renal, 0.319 µM; in the test on MOLT-4 leukemia, 0.334 µM. In the test on RPMI-8226 leukemia, the TGI was found to be 0.399 µM.
As to `CSC1SCC2C(=O)N(C)C3(CC3C)C(=O)OCC(NC(=O)c3nc4ccccc4cc3O)C(=O)NC(C)C(=O)N(C)C1C(=O)N(C)C1(CC1C)C(=O)OCC(NC(=O)c1nc3ccccc3cc1O)C(=O)NC(C)C(=O)N2C` (centres undefined), the TGI in the test on ACHN renal was above 100 µM; with NCI/ADR-RES ovarian, 72.7 µM; in the test on HOP-92 NSCLC, below 0.0001 µM; in the test with SK-OV-3 ovarian, 17.2 µM; in the test with RXF 393 renal, below 0.0001 µM; in the test with SK-MEL-28 melanoma, below 0.0001 µM. Moreover, in the test on RPMI-8226 leukemia, the TGI was below 0.0001 µM. Also, the GI50 with NCI/ADR-RES ovarian was 0.124 µM.
Consider `CSc1nncc(-c2cc3c(c(SC)n2)CCC3)n1`, for which the TGI in the test with ACHN renal, in the test with NCI/ADR-RES ovarian, in the test on SK-OV-3 ovarian, in the test on OVCAR-5 ovarian, with RXF 393 renal and in the test with SK-MEL-28 melanoma was above 100 µM in each case. In the test on RPMI-8226 leukemia, the TGI is above 100 µM.
Turning to `O=C(O)c1ccccc1/C=N\NC1=NCCCCN1`, the TGI in the test with ACHN renal, in the test with NCI/ADR-RES ovarian, in the test on SK-OV-3 ovarian, with OVCAR-5 ovarian, in the test on MDA-N and in the test with MOLT-4 leukemia was above 100 µM in each case. Moreover, the TGI with RPMI-8226 leukemia was above 100 µM.
As for `O=C(NCCNCCO)N/N=C/c1ccc(Cl)cc1`, the TGI in the test with ACHN renal, in the test on NCI/ADR-RES ovarian, in the test on SK-OV-3 ovarian, in the test with OVCAR-5 ovarian, in the test on SK-MEL-28 melanoma and in the test on MDA-N was above 100 µM throughout. The TGI with MOLT-4 leukemia was above 100 µM.
As for `O=C(N=Nc1ccccc1Br)NNc1ccccc1Br`, the TGI in the test with ACHN renal, in the test on OVCAR-5 ovarian, in the test on SK-MEL-28 melanoma, in the test on MDA-N, in the test on MOLT-4 leukemia and in the test on RPMI-8226 leukemia was above 100 µM in each case.
For `CCOC(=O)c1sc2c(c1OC(=O)c1ccccc1)c(=O)n(-c1ccccc1)c(=S)n2-c1ccccc1`, the TGI in the test with ACHN renal was above 100 µM; with NCI/ADR-RES ovarian, 51 µM; with HOP-92 NSCLC, 79.2 µM; in the test with SK-OV-3 ovarian, above 100 µM; with OVCAR-5 ovarian, above 100 µM; with RXF 393 renal, above 100 µM. Besides, the TGI with SK-MEL-28 melanoma, in the test with MOLT-4 leukemia and with RPMI-8226 leukemia was above 100 µM in each case.
Turning to `N#Cc1c2c(c(N3CCOCC3)n3c1nc1ccccc13)CCCC2`, the TGI in the test on ACHN renal was determined as 31.3 µM; in the test with NCI/ADR-RES ovarian, 43.2 µM; in the test on HOP-92 NSCLC, 38.8 µM; in the test on SK-OV-3 ovarian it was 67.7 µM; with OVCAR-5 ovarian, 41.8 µM; in the test with SK-MEL-28 melanoma, 49.3 µM. Further, the figures for the TGI in the test with MDA-N and in the test on MOLT-4 leukemia were 38.7 µM and 41.5 µM, respectively.
As to `CCC(C)C1NC(=O)C(NC(=O)C(CC(C)C)N(C)C(=O)[C@@H]2CCCN2)C(C)OC(=O)[C@H](Cc2ccc(OC)cc2)N(C)C(=O)[C@@H]2CCCN2C(=O)[C@H](CC(C)C)NC(=O)C(C)C(=O)[C@H](C(C)C)OC(=O)CC1O` (some centres undefined) (H-P[ξNMeL][ξT][X4]LP[NMeY](Me); ester 3-C), the TGI in the test on ACHN renal is 0.0352 µM and 0.156 µM; in the test with NCI/ADR-RES ovarian, 0.78 µM and 3.74 µM; in the test on HOP-92 NSCLC it was 0.0187 µM; in the test on SK-OV-3 ovarian, 0.0177 µM; with OVCAR-5 ovarian it was 0.0794 µM; with SK-MEL-28 melanoma, 0.00179 µM. The TGI stood at 0.0107 µM in the test on MDA-N and 0.00507 µM in the test on MOLT-4 leukemia. The GI50 with NCI/ADR-RES ovarian was 0.233 µM.
